Measurements taken from patent publication US20240190855A1 (Relay Therapeutics, Inc., priority 2021, published 2024).

These compounds were tested against T1, CDK2/Cyclin E complex (Homo sapiens, UniProt P24941) (assay: CDK2/Cyclin E fluorescence-based microfluidic mobility shift assay (CDK2 Biochemical Caliper Assay)). Details: read-out: Biochemical CDK2/CyclinE Caliper IC50.
T1 construct: purchased Eurofins 14-475
In short: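 Microfluidic mobility-shift readout after EDTA termination measured phosphorylation of fluorescent FL Peptide 18 (1.5 uM final) in a 20 hr room-temperature reaction. Compounds were tested at 11 concentrations (3-fold).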
CC(C)c1ccnnc1O[C@@H]1CC[C@H](c2cc(Nc3nccc4ncsc34)n[nH]2)C1 [Example 436] was tested, and the IC50 was ≤ 100 nM. With CC(C)c1ccnnc1O[C@H]1CC[C@@H](c2cc(Nc3nccc4ncsc34)n[nH]2)C1 [Example 437] the IC50 was ≤ 100 nM. With CC(C)c1ccnnc1OC[C@H]1C[C@@H](c2cc(Nc3nccc4ncsc34)n[nH]2)C1 [Example 438] the IC50 was ≤ 100 nM. CC(C)c1ccnnc1OC[C@H]1C[C@H](c2cc(Nc3nccc4ncsc34)n[nH]2)C1 [Example 439] gave an IC50 of 1000 to 100000 nM. For COCc1cc(C(=O)Nc2cc([C@H]3C[C@@H](COc4nscc4C4CC4)C3)[nH]n2)n(C)n1 [Example 454], the IC50 was ≤ 100 nM. Compound COCc1cc(C(=O)Nc2cc([C@H]3C[C@H](COc4nscc4C4CC4)C3)[nH]n2)n(C)n1 [Example 455] has an IC50 of 1000 to 100000 nM. In the case of CC(C)NC(=O)OC[C@H]1C[C@@H](c2cc(Nc3nccc4ncsc34)n[nH]2)C1 [Example 456], the IC50 is reported as ≤ 100 nM. CC(C)NC(=O)OC[C@H]1C[C@H](c2cc(Nc3nccc4ncsc34)n[nH]2)C1 [Example 457] showed an IC50 of 250 to 1000 nM. In the case of COCc1cc(C(=O)Nc2cc([C@H]3C[C@@H](Oc4nnccc4C(C)C)CO3)[nH]n2)n(C)n1 [Example 458], the IC50 is reported as ≤ 100 nM. For COCc1cc(C(=O)Nc2cc([C@@H]3C[C@H](Oc4nnccc4C(C)C)CO3)[nH]n2)n(C)n1 [Example 459], the IC50 was ≤ 100 nM. COCc1cc(C(=O)Nc2cc([C@H]3C[C@@H](COC(=O)NC(C)C)C3)[nH]n2)n(C)n1 [Example 460] was tested, and the IC50 was ≤ 100 nM. For COCc1cc(C(=O)Nc2cc([C@H]3C[C@H](COC(=O)NC(C)C)C3)[nH]n2)n(C)n1 [Example 461], the IC50 was 1000 to 100000 nM. For CC(C)c1ccnnc1O[C@H]1CO[C@@H](c2cc(Nc3nccn4nccc34)n[nH]2)C1 [Example 464], the IC50 was ≤ 100 nM. CC(C)c1ccnnc1O[C@@H]1CO[C@H](c2cc(Nc3nccn4nccc34)n[nH]2)C1 [Example 465] was tested, and the IC50 was ≤ 100 nM. With CC(C)c1ccnnc1OC[C@H]1C[C@@H](c2cc(Nc3nccn4nccc34)n[nH]2)C1 [Example 488] the IC50 was ≤ 100 nM. Work on CC(C)c1ccnnc1OC[C@H]1C[C@H](c2cc(Nc3nccn4nccc34)n[nH]2)C1 [Example 489] yielded an IC50 of 250 to 1000 nM. COCc1cc2c(Nc3cc([C@H]4C[C@@H](Oc5nnccc5C(C)C)CO4)[nH]n3)nccn2n1 [Example 496] was tested, and the IC50 was ≤ 100 nM. COCc1cc2c(Nc3cc([C@@H]4C[C@H](Oc5nnccc5C(C)C)CO4)[nH]n3)nccn2n1 [Example 497] was tested, and the IC50 was ≤ 100 nM. For Cc1ncccc1OC[C@H]1C[C@@H](c2cc(Nc3nccn4nccc34)n[nH]2)C1 [Example 513], the IC50 was 100 to 250 nM. Cc1ncccc1OC[C@H]1C[C@H](c2cc(Nc3nccn4nccc34)n[nH]2)C1 [Example 514] was tested, and the IC50 was 1000 to 100000 nM. COCc1cc(C(=O)Nc2cc([C@H]3C[C@]4(CN(CC(C)C)C(=O)N4)C3)[nH]n2)n(C)n1 [Example 515] showed an IC50 of 1000 to 100000 nM. Work on COCc1cc(C(=O)Nc2cc([C@H]3C[C@@]4(CN(CC(C)C)C(=O)N4)C3)[nH]n2)n(C)n1 [Example 516] yielded an IC50 of 250 to 1000 nM. With COCc1cc2c(Nc3cc([C@H]4C[C@@H](COc5nnccc5C(C)C)C4)[nH]n3)nccn2n1 [Example 519] the IC50 was ≤ 100 nM. Work on COCc1cc2c(Nc3cc([C@H]4C[C@H](COc5nnccc5C(C)C)C4)[nH]n3)nccn2n1 [Example 520] yielded an IC50 of 1000 to 100000 nM. Cc1ncccc1O[C@@H]1CO[C@H](c2cc(Nc3nccn4nccc34)n[nH]2)C1 [Example 521] gave an IC50 of 1000 to 100000 nM. Compound Cc1ncccc1O[C@H]1CO[C@@H](c2cc(Nc3nccn4nccc34)n[nH]2)C1 [Example 522] has an IC50 of 250 to 1000 nM. In the case of CC(C)c1ccnnc1O[C@H]1CO[C@@H](c2cc(Nc3nccc4ncsc34)n[nH]2)C1 [Example 523], the IC50 is reported as ≤ 100 nM. For CC(C)c1ccnnc1O[C@@H]1CO[C@H](c2cc(Nc3nccc4ncsc34)n[nH]2)C1 [Example 524], the IC50 was ≤ 100 nM. Compound COCc1cc(C(=O)Nc2cc([C@H]3C[C@@](C)(CC(=O)NC(C)C)C3)[nH]n2)n(C)n1 [Example 532] has an IC50 of 1000 to 100000 nM. COCc1cc(C(=O)Nc2cc([C@H]3C[C@](C)(CC(=O)NC(C)C)C3)[nH]n2)n(C)n1 [Example 533] was tested, and the IC50 was 1000 to 100000 nM. For c1cncc(OC[C@H]2C[C@@H](c3cc(Nc4nccn5nccc45)n[nH]3)C2)c1 [Example 536], the IC50 was ≤ 100 nM. c1cncc(OC[C@H]2C[C@H](c3cc(Nc4nccn5nccc45)n[nH]3)C2)c1 [Example 537] showed an IC50 of 1000 to 100000 nM. With COCc1cc(C(=O)Nc2cc([C@H]3C[C@@H]4[C@H](C3)[C@H]4C(=O)N(C)C)[nH]n2)n(C)n1 [Example 540] the IC50 was 1000 to 100000 nM. COCc1cc(C(=O)Nc2cc([C@H]3C[C@]4(C3)NC(=O)N(CC(C)C)C4=O)n[nH]2)n(C)n1 [Example 541] gave an IC50 of 1000 to 100000 nM. With COCc1cc2c(Nc3cc([C@H]4C[C@@H](OC(=O)NC(C)C)CO4)[nH]n3)nccn2n1 [Example 544] the IC50 was ≤ 100 nM. With COCc1cc2c(Nc3cc([C@@H]4C[C@H](OC(=O)NC(C)C)CO4)[nH]n3)nccn2n1 [Example 545] the IC50 was ≤ 100 nM. Work on COCc1cc(C(=O)Nc2cc(N3CC(COC(=O)NC(C)C)C3)[nH]n2)n(C)n1 [Example 558] yielded an IC50 of 1000 to 100000 nM. In the case of COCc1cc2c(Nc3cc([C@H]4C[C@H](COC(=O)NC(C)C)C4)[nH]n3)nccn2n1 [Example 560], the IC50 is reported as 100 to 250 nM. COCc1cc(C(=O)Nc2cc([C@H]3C[C@@H](COc4cccnc4)C3)[nH]n2)n(C)n1 [Example 561] was tested, and the IC50 was 1000 to 100000 nM. With COCc1cc(C(=O)Nc2cc([C@H]3C[C@H](COc4cccnc4)C3)[nH]n2)n(C)n1 [Example 562] the IC50 was 1000 to 100000 nM. For CC(C)c1[nH]ncc1OC[C@H]1C[C@@H](c2cc(Nc3nccn4nccc34)n[nH]2)C1 [Example 582], the IC50 was ≤ 100 nM. CC(C)c1[nH]ncc1OC[C@H]1C[C@H](c2cc(Nc3nccn4nccc34)n[nH]2)C1 [Example 583] was tested, and the IC50 was 1000 to 100000 nM. For COCc1cc2c(Nc3cc([C@H]4C[C@@H](COc5cccnc5)C4)[nH]n3)nccn2n1 [Example 586], the IC50 was 250 to 1000 nM. With COCc1cc(C(=O)Nc2cc([C@H]3C[C@@H](COc4cn[nH]c4C(C)C)C3)[nH]n2)n(C)n1 [Example 587] the IC50 was 100 to 250 nM. For COCc1cc2c(Nc3cc([C@H]4C[C@@H](COc5cn[nH]c5C(C)C)C4)[nH]n3)nccn2n1 [Example 588], the IC50 was ≤ 100 nM. In the case of CC(C)NC(=O)OC[C@H]1C[C@@H](c2cc(Nc3ccc4c(n3)C(C)(C)NC4=O)n[nH]2)C1 [Example 589], the IC50 is reported as ≤ 100 nM. With COCc1cc2c(Nc3cc([C@H]4C[C@@H](OC(=O)NC5(C)CC5)CO4)[nH]n3)nccn2n1 [Example 619] the IC50 was ≤ 100 nM. In the case of COCc1cc2c(Nc3cc([C@@H]4C[C@H](OC(=O)NC5(C)CC5)CO4)[nH]n3)nccn2n1 [Example 620], the IC50 is reported as ≤ 100 nM. In the case of COCc1cc2c(Nc3cc([C@H]4C[C@@H](COC(=O)N5[C@@H](C)CC[C@@H]5C)C4)[nH]n3)nccn2n1 [Example 621], the IC50 is reported as ≤ 100 nM. For COCc1cc(C(=O)Nc2cc([C@H]3C[C@@H](COc4cn[nH]c4C(C)(C)C)C3)[nH]n2)n(C)n1 [Example 622], the IC50 was ≤ 100 nM. COCc1cc(C(=O)Nc2cc([C@H]3C[C@@H](COc4cn(C)nc4C(C)C)C3)[nH]n2)n(C)n1 [Example 623] was tested, and the IC50 was 100 to 250 nM. In the case of CCOCc1cc(C(=O)Nc2cc([C@H]3C[C@@H](COC(=O)NC(C)C)C3)[nH]n2)n(C)n1 [Example 624], the IC50 is reported as ≤ 100 nM. With CCOCc1cc(C(=O)Nc2cc([C@H]3C[C@H](COC(=O)NC(C)C)C3)[nH]n2)n(C)n1 [Example 625] the IC50 was 1000 to 100000 nM. COCc1cc(C(=O)Nc2cc([C@H]3CC[C@@H](OC(=O)NC(C)C)CC3)[nH]n2)n(C)n1 [Example 626] was tested, and the IC50 was 250 to 1000 nM. COCc1cc(C(=O)Nc2cc([C@H]3CC[C@@H](Oc4nnccc4C(C)C)CC3)[nH]n2)n(C)n1 [Example 627] was tested, and the IC50 was ≤ 100 nM. COCc1cc(C(=O)Nc2cc([C@@H]3CC[C@H](Oc4cn[nH]c4C(C)C)C3)[nH]n2)n(C)n1 [Example 628] showed an IC50 of 250 to 1000 nM. With COCc1cc(C(=O)Nc2cc([C@H]3CC[C@@H](Oc4cn[nH]c4C(C)C)C3)[nH]n2)n(C)n1 [Example 629] the IC50 was 100 to 250 nM. COCc1cc2c(Nc3cc([C@H]4C[C@@H](COc5cn[nH]c5C(C)(C)C)C4)[nH]n3)nccn2n1 [Example 630] was tested, and the IC50 was ≤ 100 nM. Compound COCc1cc(C(=O)Nc2cc([C@H]3C[C@@H](COc4cnn(C)c4C(C)C)C3)[nH]n2)n(C)n1 [Example 631] has an IC50 of 100 to 250 nM. COCc1cc(C(=O)Nc2cc([C@H]3C[C@@H](COc4nncn4C(C)(C)C)C3)[nH]n2)n(C)n1 [Example 632] was tested, and the IC50 was ≤ 100 nM. For COCc1cc(C(=O)Nc2cc([C@H]3C[C@@H](COc4nncn4C(C)C)C3)[nH]n2)n(C)n1 [Example 633], the IC50 was ≤ 100 nM. Work on CC(C)NC(=O)O[C@@H]1CO[C@H](c2cc(NC(=O)c3cc(CN4CCCC4)nn3C)n[nH]2)C1 [Example 634] yielded an IC50 of 100 to 250 nM. In the case of CC(C)n1cnnc1OC[C@H]1C[C@@H](c2cc(Nc3nccn4nccc34)n[nH]2)C1 [Example 635], the IC50 is reported as ≤ 100 nM. COCc1cc2c(Nc3cc([C@H]4C[C@@H](COc5nncn5C(C)(C)C)C4)[nH]n3)nccn2n1 [Example 636] was tested, and the IC50 was ≤ 100 nM. CC(C)(C)n1cnnc1OC[C@H]1C[C@@H](c2cc(Nc3nccn4nccc34)n[nH]2)C1 [Example 637] was tested, and the IC50 was ≤ 100 nM. COCc1cc2c(Nc3cc([C@H]4C[C@@H](OC(=O)N[C@H](C)CC(F)(F)F)CO4)[nH]n3)nccn2n1 [Example 638] was tested, and the IC50 was ≤ 100 nM. With COCc1cc2c(Nc3cc([C@H]4C[C@@H](OC(=O)N[C@@H](C)CC(F)(F)F)CO4)[nH]n3)nccn2n1 [Example 639] the IC50 was ≤ 100 nM. With COCc1cc2c(Nc3cc([C@H]4C[C@@H](OC(=O)NC5(C(F)(F)F)CC5)CO4)[nH]n3)nccn2n1 [Example 640] the IC50 was ≤ 100 nM. In the case of COCc1cc2c(Nc3cc([C@H]4C[C@@H](OC(=O)NC(C)(C)C(F)(F)F)CO4)[nH]n3)nccn2n1 [Example 641], the IC50 is reported as ≤ 100 nM. With COCc1cc(C(=O)Nc2cc([C@H]3C[C@@H](COc4cn(C)nc4C(C)(C)C)C3)[nH]n2)n(C)n1 [Example 642] the IC50 was 100 to 250 nM. COCc1cc2c(Nc3cc([C@H]4C[C@@H](OC(=O)NC5(CC(F)(F)F)CC5)CO4)[nH]n3)nccn2n1 [Example 643] was tested, and the IC50 was ≤ 100 nM.
